Test results published in ChEMBL document CHEMBL1250451, “Mechanistic insights into a Ca2+-dependent family of alpha-mannosidases in a human gut symbiont” (Nat Chem Biol, 2010).

How the values were obtained:
Assay type in all cases: protein assay
[1] = target: T1, Alpha-1,2-mannosidase (BT_2199) (Bacteroides thetaiotaomicron) (UniProt Q8A5N9); assay: Activity of Bacteroides thetaiotaomicron GH92 alpha-mannosidase 2199 assessed as recovery of enzyme activity at 1 mM in presence of 7 mM Mg(2+) ions and in presence of 5 mM EDTA in 100 mM pH 7 MOPS buffer relative to enzyme activity in presence of calcium
T1 sequence (whole entry): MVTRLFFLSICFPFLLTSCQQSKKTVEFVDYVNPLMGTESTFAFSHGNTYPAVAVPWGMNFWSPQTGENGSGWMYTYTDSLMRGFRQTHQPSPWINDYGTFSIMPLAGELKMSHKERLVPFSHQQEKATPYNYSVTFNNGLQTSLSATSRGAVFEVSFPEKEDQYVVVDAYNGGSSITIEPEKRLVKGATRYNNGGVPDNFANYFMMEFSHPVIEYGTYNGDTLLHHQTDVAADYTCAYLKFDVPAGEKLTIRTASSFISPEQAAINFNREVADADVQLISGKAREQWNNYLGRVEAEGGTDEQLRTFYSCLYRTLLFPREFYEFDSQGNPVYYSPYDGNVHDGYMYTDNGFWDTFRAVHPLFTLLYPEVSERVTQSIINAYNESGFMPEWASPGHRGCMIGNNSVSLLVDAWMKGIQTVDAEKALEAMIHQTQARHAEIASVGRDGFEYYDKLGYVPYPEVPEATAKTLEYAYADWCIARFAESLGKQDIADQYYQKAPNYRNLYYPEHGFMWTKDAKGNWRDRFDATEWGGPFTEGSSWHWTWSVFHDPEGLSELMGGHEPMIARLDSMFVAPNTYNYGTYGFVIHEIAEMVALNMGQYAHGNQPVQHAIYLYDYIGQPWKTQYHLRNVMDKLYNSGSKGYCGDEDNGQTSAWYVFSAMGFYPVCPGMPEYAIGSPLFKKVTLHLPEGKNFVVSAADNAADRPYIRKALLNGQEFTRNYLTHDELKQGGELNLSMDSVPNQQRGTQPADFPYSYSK

[2] = target: T1, Alpha-1,2-mannosidase (BT_2199) (Bacteroides thetaiotaomicron); assay: Activity of Bacteroides thetaiotaomicron GH92 alpha-mannosidase 2199 assessed as recovery of enzyme activity at 1 mM in presence of 7 mM Mn(2+) ions and in presence of 5 mM EGTA in 100 mM pH 7 MOPS buffer relative to enzyme activity in presence of calcium
[3] = target: T1, Alpha-1,2-mannosidase (BT_2199) (Bacteroides thetaiotaomicron); assay: Activity of Bacteroides thetaiotaomicron GH92 alpha-mannosidase 2199 assessed as recovery of enzyme activity at 1 mM in absence of metal and in presence of 5 mM EGTA in 100 mM pH 7 MOPS buffer relative to enzyme activity in presence of calcium
[4] = target: T2, Alpha-1,2-mannosidase (BT_3990) (Bacteroides thetaiotaomicron) (UniProt Q8A0N1); assay: Activity of Bacteroides thetaiotaomicron GH92 alpha-mannosidase 3990 assessed as recovery of enzyme activity at 1 mM in presence of 7 mM V(3+) ions and in presence of 5 mM EGTA in 100 mM pH 7 MOPS buffer relative to enzyme activity in presence of calcium
T2 sequence (whole entry): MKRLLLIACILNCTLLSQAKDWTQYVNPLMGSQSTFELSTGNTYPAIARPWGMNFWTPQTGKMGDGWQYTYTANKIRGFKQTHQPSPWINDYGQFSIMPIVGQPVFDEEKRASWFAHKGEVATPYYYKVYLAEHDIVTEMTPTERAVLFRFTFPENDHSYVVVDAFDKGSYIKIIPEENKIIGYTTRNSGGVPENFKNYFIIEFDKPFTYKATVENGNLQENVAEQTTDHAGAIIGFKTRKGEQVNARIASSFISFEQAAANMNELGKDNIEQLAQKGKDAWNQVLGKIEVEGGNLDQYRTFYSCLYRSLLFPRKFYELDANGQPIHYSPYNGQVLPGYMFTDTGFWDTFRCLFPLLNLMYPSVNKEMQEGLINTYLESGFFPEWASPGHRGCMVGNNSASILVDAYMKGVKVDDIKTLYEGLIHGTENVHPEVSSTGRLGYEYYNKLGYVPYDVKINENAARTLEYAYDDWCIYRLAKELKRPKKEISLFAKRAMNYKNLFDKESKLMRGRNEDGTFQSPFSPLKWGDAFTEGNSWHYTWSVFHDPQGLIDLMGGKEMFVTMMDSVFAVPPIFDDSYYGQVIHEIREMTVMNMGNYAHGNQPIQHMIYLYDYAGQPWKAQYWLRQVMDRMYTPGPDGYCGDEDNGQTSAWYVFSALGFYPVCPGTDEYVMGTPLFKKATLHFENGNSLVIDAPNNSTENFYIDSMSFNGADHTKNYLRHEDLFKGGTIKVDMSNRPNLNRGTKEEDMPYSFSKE

[5] = target: T1, Alpha-1,2-mannosidase (BT_2199) (Bacteroides thetaiotaomicron); assay: Activity of Bacteroides thetaiotaomicron GH92 alpha-mannosidase 2199 assessed as recovery of enzyme activity at 1 mM in presence of 7 mM Mg(2+) ions and in presence of 5 mM EGTA in 100 mM pH 7 MOPS buffer relative to enzyme activity in presence of calcium
[6] = target: T1, Alpha-1,2-mannosidase (BT_2199) (Bacteroides thetaiotaomicron); assay: Activity of Bacteroides thetaiotaomicron GH92 alpha-mannosidase 2199 assessed as recovery of enzyme activity at 1 mM in presence of 7 mM Zn(2+) ions and in presence of 5 mM EDTA in 100 mM pH 7 MOPS buffer relative to enzyme activity in presence of calcium
[7] = target: T1, Alpha-1,2-mannosidase (BT_2199) (Bacteroides thetaiotaomicron); assay: Activity of Bacteroides thetaiotaomicron GH92 alpha-mannosidase 2199 assessed as recovery of enzyme activity at 1 mM in presence of 7 mM Be(2+) ions and in presence of 5 mM EGTA in 100 mM pH 7 MOPS buffer relative to enzyme activity in presence of calcium
[8] = target: T2, Alpha-1,2-mannosidase (BT_3990) (Bacteroides thetaiotaomicron); assay: Activity of Bacteroides thetaiotaomicron GH92 alpha-mannosidase 3990 assessed as recovery of enzyme activity at 1 mM in absence of metal and in presence of 5 mM EGTA in 100 mM pH 7 MOPS buffer relative to enzyme activity in presence of calcium
[9] = target: T1, Alpha-1,2-mannosidase (BT_2199) (Bacteroides thetaiotaomicron); assay: Activity of Bacteroides thetaiotaomicron GH92 alpha-mannosidase 2199 assessed as recovery of enzyme activity at 1 mM in presence of 7 mM Co(2+) ions and in presence of 5 mM EDTA in 100 mM pH 7 MOPS buffer relative to enzyme activity in presence of calcium
[10] = target: T1, Alpha-1,2-mannosidase (BT_2199) (Bacteroides thetaiotaomicron); assay: Activity of Bacteroides thetaiotaomicron GH92 alpha-mannosidase 2199 assessed as recovery of enzyme activity at 1 mM in presence of 7 mM Ba(2+) ions and in presence of 5 mM EDTA in 100 mM pH 7 MOPS buffer relative to enzyme activity in presence of calcium
[11] = target: T1, Alpha-1,2-mannosidase (BT_2199) (Bacteroides thetaiotaomicron); assay: Activity of Bacteroides thetaiotaomicron GH92 alpha-mannosidase 2199 assessed as recovery of enzyme activity at 1 mM in presence of 7 mM Sc(3+) ions and in presence of 5 mM EDTA in 100 mM pH 7 MOPS buffer relative to enzyme activity in presence of calcium
[12] = target: T1, Alpha-1,2-mannosidase (BT_2199) (Bacteroides thetaiotaomicron); assay: Activity of Bacteroides thetaiotaomicron GH92 alpha-mannosidase 2199 assessed as recovery of enzyme activity at 1 mM in presence of 7 mM Ca(2+) ions and in presence of 5 mM EDTA in 100 mM pH 7 MOPS buffer relative to enzyme activity in presence of calcium

Activity [1]: 0%
Activity [2]: 6%
Activity [3]: 0%
Activity [4]: 0%
Activity [5]: 0%
Activity [6]: 0%
Activity [7]: 0%
Activity [8]: 0%
Activity [9]: 7%
Activity [10]: 0%
Activity [11]: 0%
Activity [12]: 100%
SMILES: O=[N+]([O-])c1ccc(O[C@H]2O[C@H](CO)[C@@H](O)[C@H](O)[C@@H]2O)cc1
